Patent publication US4256632A, “Novel derivatives of daunomycin” (Yeda Research and Development Co. Ltd., priority 1978, dated 1981)
Entries after “also recorded” stand apart in the source; their conditions may differ.

Test system: EL4 lymphoma
Experiment: Repeated treatments of mice bearing ip EL4 lymphoma
Format: in vivo, C57BL/6 mice
Design: Median survival time: unit not given here
Settings: for Median survival time: mice that died of the tumor; for Antitumor (curing) effect in words: injected intraperitoneally at different intervals after tumor cell innoculation; for Relative effectivity among derivatives: comparison in words
Protocol: Four to six weeks old C57BL/6 mice were innoculated with the ascite lymphoma tumor EL4.BU. Daunomycin and its derivatives were injected intraperitoneally at different intervals after tumor cell innoculation.
Some of the mice were totally cured, with no physical manifestation of any side effects of the tested derivatized daunomycin compounds.
10^6 EL4 lymphoma cells were innoculated ip into C57BL/6 males. Drug
administration started 2 days later.
*Refers to the group of mice that died of the tumor.

COc1cccc2c1C(=O)c1c(O)c3c(c(O)c1C2=O)C[C@@](O)(C(C)=O)C[C@@H]3O[C@H]1C[C@H](NC(=O)[C@H](CCCCN)NC(=O)[C@H](CCCCN)NC(=O)[C@@H](N)CCCCN)[C@H](O)[C@H](C)O1 [(Lys)3 -DM, (lysyl)3 -daunomycin]
Long time survivors (over 60 days) (250 μg/mouse, 8 injections ip): 6 | Toxic deaths/No. mice treated (250 μg/mouse, 8 injections ip): 1/8 | Median survival time (250 μg/mouse, 8 injections ip): 25 | Antitumor (curing) effect in words: complete cure, or a significantly prolonged life span with no apparent toxic effects

COc1cccc2c1C(=O)c1c(O)c3c(c(O)c1C2=O)CC(O)(C(C)=O)CC3OC1CC(NC(=O)C(CCCNC(=N)N)NC(=O)C(N)CCCNC(=N)N)C(O)C(C)O1 (centres unmarked) [(arginyl)2 -daunomycin, arginyl-arginyl-daunomycin]
Antitumor (curing) effect in words: complete cure, or a significantly prolonged life span with no apparent toxic effects

COc1cccc2c1C(=O)c1c(O)c3c(c(O)c1C2=O)C[C@@](O)(C(C)=O)C[C@@H]3O[C@H]1C[C@H](NC(=O)C(N)Cc2ccc(O)c(O)c2)[C@H](O)[C@H](C)O1 (some centres unmarked) [DOPA-DM, dihydroxyphenylalanyl-daunomycin]
Long time survivors (over 60 days) (240 μg/mouse, 8 injections ip): 3 | Toxic deaths/No. mice treated (240 μg/mouse, 8 injections ip): 0/4 | Median survival time (240 μg/mouse, 8 injections ip): 28

COc1cccc2c1C(=O)c1c(O)c3c(c(O)c1C2=O)C[C@@](O)(C(C)=O)C[C@@H]3O[C@H]1C[C@H](N)[C@H](O)[C@H](C)O1 [Daunomycin, daunomycin]
Long time survivors (over 60 days) (20 μg/mouse, 5 injections ip): 1 | Toxic deaths/No. mice treated (20 μg/mouse, 5 injections ip): 1/8 | Median survival time (20 μg/mouse, 5 injections ip): 17 | Long time survivors (over 60 days) (20 μg/mouse, 6 injections ip): 0 | Toxic deaths/No. mice treated (20 μg/mouse, 6 injections ip): 4/8 | Median survival time (20 μg/mouse, 6 injections ip): 15 | Long time survivors (over 60 days) (25 μg/mouse, 4 injections ip): 0 | Toxic deaths/No. mice treated (25 μg/mouse, 4 injections ip): 2/8 | Median survival time (25 μg/mouse, 4 injections ip): 14.5 | Long time survivors (over 60 days) (25 μg/mouse, 5 injections ip): 1 | Toxic deaths/No. mice treated (25 μg/mouse, 5 injections ip): 2/8 | Median survival time (25 μg/mouse, 5 injections ip): 24.5 | Long time survivors (over 60 days) (30 μg/mouse, 4 injections ip): 2 | Toxic deaths/No. mice treated (30 μg/mouse, 4 injections ip): 4/8 | Median survival time (30 μg/mouse, 4 injections ip): 25 | Long time survivors (over 60 days) (40 μg/mouse, 1 injection ip): 0 | Toxic deaths/No. mice treated (40 μg/mouse, 1 injection ip): 2/8 | Median survival time (40 μg/mouse, 1 injection ip): 19 | Long time survivors (over 60 days) (40 μg/mouse, 4 injections ip): 0 | Toxic deaths/No. mice treated (40 μg/mouse, 4 injections ip): 4/8 | Median survival time (40 μg/mouse, 4 injections ip): 18 | Long time survivors (over 60 days) (50 μg/mouse, 2 injections ip): 0 | Toxic deaths/No. mice treated (50 μg/mouse, 2 injections ip): 2/8 | Median survival time (50 μg/mouse, 2 injections ip): 19 | Long time survivors (over 60 days) (60 μg/mouse, 1 injection ip): 0 | Toxic deaths/No. mice treated (60 μg/mouse, 1 injection ip): 6/8 | Median survival time (60 μg/mouse, 1 injection ip): 18 | Long time survivors (over 60 days) (80 μg/mouse, 1 injection ip): 0 | Toxic deaths/No. mice treated (80 μg/mouse, 1 injection ip): 8/8 | Median survival time (80 μg/mouse, 1 injection ip): 17 | Effects at high doses (doses exceeding 70 μg/mouse in a single injection, or lower doses in multiple injections): acute toxicity marked by a generally wasted appearance and death, to no efficient depression of the growing tumor | Antitumor (curing) effect in words: no satisfactory curing effects; also recorded: very narrow border-zone between excessive toxicity and poor curative efficiency

COc1cccc2c1C(=O)c1c(O)c3c(c(O)c1C2=O)C[C@@](O)(C(C)=O)C[C@@H]3OC1CC(NC(=O)C(N)CCN)C(O)C(C)O1.[Cl-].[Na+] (some centres unmarked) [Dbu-DM, diaminobutyryl-daunomycin]
Long time survivors (over 60 days) (650 μg/mouse, 8 injections ip): 12 | Toxic deaths/No. mice treated (650 μg/mouse, 8 injections ip): 0/14 | Median survival time (650 μg/mouse, 8 injections ip): 31 | Antitumor (curing) effect in words: complete cure, or a significantly prolonged life span with no apparent toxic effects

COc1cccc2c1C(=O)c1c(O)c3c(c(O)c1C2=O)C[C@@](O)(C(C)=O)C[C@@H]3O[C@H]1C[C@H](NC(=O)[C@@H](N)Cc2cnc[nH]2)[C@H](O)[C@H](C)O1 [histidyl-daunomycin]
Antitumor (curing) effect in words: complete cure, or a significantly prolonged life span with no apparent toxic effects

(lysyl)2 -daunomycin [(Lys)2 -DM]
Long time survivors (over 60 days) (250 μg/mouse, 8 injections ip): 6 | Toxic deaths/No. mice treated (250 μg/mouse, 8 injections ip): 1/8 | Median survival time (250 μg/mouse, 8 injections ip): 24 | Antitumor (curing) effect in words: complete cure, or a significantly prolonged life span with no apparent toxic effects

(ornithyl)2 -daunomycin [(Orn)2 -DM]
Long time survivors (over 60 days) (300 μg/mouse, 8 injections ip): 6 | Toxic deaths/No. mice treated (300 μg/mouse, 8 injections ip): 1/8 | Relative effectivity among derivatives: much more effective than with ornithine | Antitumor (curing) effect in words: complete cure, or a significantly prolonged life span with no apparent toxic effects

(ornithyl)n -daunomycin where n=2 to 5 [(Orn)5 -DM]
Long time survivors (over 60 days) (300 μg/mouse, 8 injections ip): 2 | Toxic deaths/No. mice treated (300 μg/mouse, 8 injections ip): 1/8 | Median survival time (300 μg/mouse, 8 injections ip): 38

arginyl-daunomycin [Arg-DM]
Long time survivors (over 60 days) (250 μg/mouse, 7 injections ip): 3 | Toxic deaths/No. mice treated (250 μg/mouse, 7 injections ip): 0/4 | Median survival time (250 μg/mouse, 7 injections ip): 35 | Long time survivors (over 60 days) (400 μg/mouse, 6 injections ip): 3 | Toxic deaths/No. mice treated (400 μg/mouse, 6 injections ip): 1/4

aspartyl-lysyl-daunomycin [Asp-Lys-DM]
Long time survivors (over 60 days) (600 μg/mouse, 8 injections ip): 6 | Toxic deaths/No. mice treated (600 μg/mouse, 8 injections ip): 0/8 | Median survival time (600 μg/mouse, 8 injections ip): 31 | Relative effectivity among derivatives: more effective than aspartyl-daunomycin | Antitumor (curing) effect in words: complete cure, or a significantly prolonged life span with no apparent toxic effects

lysyl-daunomycin [Lys-DM]
Long time survivors (over 60 days) (200 μg/mouse, 4 injections ip): 0 | Toxic deaths/No. mice treated (200 μg/mouse, 4 injections ip): 0/8 | Median survival time (200 μg/mouse, 4 injections ip): 28 | Long time survivors (over 60 days) (250 μg/mouse, 8 injections ip): 5 | Toxic deaths/No. mice treated (250 μg/mouse, 8 injections ip): 2/8 | Median survival time (250 μg/mouse, 8 injections ip): 26 | Antitumor (curing) effect in words: complete cure, or a significantly prolonged life span with no apparent toxic effects

lysyl-leucyl-daunomycin
Relative effectivity among derivatives: more effective than leucyl-daunomycin
